Like-named read-outs stand apart in the source and are kept apart here.
Columns and labels:
[1] = system: porcine aortic smooth muscle cells; assay: inhibition of smooth muscle cell proliferation (3H thymidine, serum or PDGF stimulated); format: cell-based; conditions: Sus scrofa, 24-36 h at 37° C.
Experimental: The ability of the compounds of the present invention to inhibit smooth muscle cell proliferation was established using isolated porcine aortic smooth muscle cells in a modification of the procedure of Castellot et al. J. Biol. Chem 257(19) 11256 (1982), as follows:
Fresh porcine aortas, scrupulously cleansed of fatty tissue, are rinsed in sterile phosphate-buffered saline with 2% antibiotic-antimycotic (100×) liquid (10,000 units of penicillin (base), 10,000 μg of streptomycin (base), and 25 μg of amphotericin B/mL utilizing penicillin G (sodium salt), streptomycin sulfate, and amphotericin B as Fungizone® in 0.85% saline, available from Gibco Laboratories, Grand Island Biological Co., Grand Island, N.Y.). The tissue is then digested in 10-15 mL of an enzyme solution containing collagenase type I, 165 U/mL; elastase type III, 15 U/mL; BSA, 2 mg/mL; and soybean trypsin inhibitor, 0.375 mg/mL, followed by incubation at 37° C. under 5% CO2 atmosphere for 10 to 15 minutes. After this treatment, the outer surface adventitia is removed by peeling with a forceps. The aorta is then longitudinally cut and laid open and the endothelial layer is removed by scraping.
The medial layer of cells is rinsed in the enzyme solution, and placed in a new 100 mm dish with 10 mL of enzyme solution. The medial layer of cells is minced using a fine pair of scissors and digested for 2-3 hours at 37° C. in 30 mL of fresh enzyme solution. After digestion, the medial tissue is homogenized using a sterile Pasteur pipette with a fire polished tip or an Eppendorf pipetter with a 200-1000 μL sterile pipette tip. The suspension is then centrifuged for 10 minutes at 8000 rpm and the pellet is suspended in 4-6 mL of fresh enzyme solution and plated onto 4-6 100 mm flasks with vented caps. The cells are then allowed to grow to confluence and split using 0.25% trypsin. The cells are evaluated for purity and overall quality using antibody to SMC actin.
The cells are assayed in early passage (generally passage 3-7) at sub-confluent conditions. Cultures are grown in 16 mm (24 well) multi-well culture dishes in media 199 supplemented with 10% fetal bovine serum and 2% antibiotic/antimycotic. At subconfluence, the cells are placed in a defined serum free, lymphocyte medium (AIM-V; Gibco) for 24-48 hours prior to initiating the experimental protocol.
The standard test procedure is initiated by addition of the test compound, ^3 H thymidine and serum or a specific growth factor to the serum deprived synchronized cells. Growth factor and serum stimulations are optimized for each cell type. The test compounds are added to each well at 50 fold dilution (20 μL/well) and the plates are incubated for 24-36 hours at 37° C. in 5% CO2 atmosphere. Test compounds are dissolved in 50% ethanol and assayed at 1, 10, and 100 μM. As a control, RG 50872 (Bilder, G. A.; et al., Am. J. Cell Physiol., 1991; 260: C721) is routinely assayed under the conditions of each cell preparation at a concentration of 5 μM.
At the completion of the experiment, the plates are placed on ice, washed three times with ice cold PBS and incubated in ice cold 10% trichloroacetic acid (TCA) for 30 minutes to remove acid soluble proteins. Each solution is transferred to a scintillation vial containing 0.4N HCl (500 μL/vial to neutralize NaOH) and each well is rinsed two times with water (500 μL) for a total volume of 2 mL/vial.
Data is quantitated by subjecting the vials to a scintillation counter, in triplicate, for both control and experimental samples. Control (100%) data is obtained from maximally stimulated cells, as the result of growth factor or serum stimulation. Experimental data is obtained from cells maximally stimulated with growth factor or serum and treated with a test compound. (The platelet-derived growth factor used in the assay was human recombinant PDGF-AB purchased from Upstate Biotechnology Inc., Lake Placid, N.Y.). Data is expressed as a percent of control from which IC50 s are determined.

[2] = cytotoxicity, modified MTT assay (% viable cells); format: cell-based, porcine; conditions: pig, smooth muscle cells; fresh medium without serum, 24 h at 37° C.; no drug = 100% viable
Experimental: To distinguish cytotoxicity from the ability of a compound to prevent proliferation, the test compounds were examined using a commercial modification of the MTT assay. Briefly, cells were grown in 24 well plates to 70-80% confluency. The cells were serum deprived for 24-48 hours prior to initiation of the experimental protocol. To insure that the MTT assay monitored toxicity rather than proliferation, the cells were incubated with […] test compound in fresh medium without serum for 24 hours at 37° C. in a humidified CO2 incubator. Upon completion of the compound treatment, MTT indicator dye was added for 4 hours at 37° C. Cells were then solubilized and aliquots from each well were transferred to a 96-well plate for analysis. Absorbance at 570 nm wavelength with a reference wavelength of 630 nm was recorded using an ELISA plate reader. Results are reported as percent viable using no drug (100% viable) and pre-solubilization (0% viable) standards.

[3] = human recombinant PDGF-AB stimulated, read-out: Porcine Smooth Muscle Cell Antiproliferation IC50 or % Inhibition at x Concentration, PDGF
[4] = serum-stimulated, read-out: Porcine Smooth Muscle Cell Antiproliferation IC50 or % Inhibition at x Concentration, Serum

## N#C/C(=C\c1ccncc1)c1cccnc1 [Example 1, Z-2-(Pyridin-3yl)-3-(pyridin-4-yl)-acrylonitrile]
[1]; [3]
  IC50: 346 nM
[1]; [4]
  IC50: 1160 nM
[2]
  viability at 24 h: 100%

## N#CC(=Cc1ccnc2ccccc12)c1cccnc1 [Example 2, 2-Pyridin-3-yl-3-quinolin-4-yl-acrylonitrile]
[1]; [4]
  IC50: 81000 nM

## N#CC(=Cc1ccc2c(c1)OCCO2)c1cccnc1 [Example 3, 3-(2,3-Dihydro-benzo[1,4]dioxin-6-yl)-2-pyridin-3-yl-acrylonitrile]
[1]; [3]
  IC50: 10500 nM
[1]; [4]
  IC50: 3800 to 11500 nM
[2]
  viability at 24 h: 86%

## N#CC(=Cc1ccccn1)c1cccnc1 [Example 4, 2-Pyridin-3-yl-3-pyridin-2-yl-acrylonitrile]
[1]; [4]
  IC50: 48300 nM
[2]
  viability at 24 h: 92%

## N#CC(=Cc1cccnc1)c1cccnc1 [Example 5, 2,3-Di-pyridin-3-yl-acrylonitrile]
[1]; [4]
  IC50: 96600 nM

## N#CC(=Cc1c[nH]c2ncccc12)c1cccnc1 [Example 6, 2-(Pyridin-3-yl)-3-(1H-pyrrolo[2,3-b]pyridin-3-yl)-acrylonitrile]
[1]; [3]
  IC50: 900 nM
[1]; [4]
  IC50: 1180 nM
[2]
  viability at 24 h: 100%

## N#C/C(=C\c1ccc2c(c1)OCCO2)c1c[nH]c2ncccc12 [Example 7, (Z)-3-(2,3-Dihydro-benzo[1,4]dioxin-6-yl)-2-(1H-pyrrolo-[2,3-b]pyridin-3-yl)-acrylonitrile]
[1]; [3]
  IC50: 14800 nM
[1]; [4]
  IC50: 1230 nM
[2]
  viability at 24 h: 100%

## CCn1c2ccccc2c2cc(/C=C(\C#N)c3cccnc3)ccc21 [Example 8, (Z)-3-(9-Ethyl-9H-carbazol-3-yl)-2-(pyridin-3-yl) acrylonitrile]
[1]; [3]
  IC50: 336 nM
[1]; [4]
  IC50: 355 nM
[2]
  viability at 24 h: 100%

## N#CC(=Cc1ccc[nH]1)c1cccnc1 [Example 9, 2-(Pyridin-3-yl)-3-(1H-pyrrol-2-yl)-acrylonitrile]
[1]; [4]
  IC50: 92000 nM
[2]
  viability at 24 h: 84%
